Assay results from patent US20250228835A1, “PYRIDINYLOXYPYRIDINES AND RELATED COMPOUNDS AND THEIR USE IN TREATING MEDICAL CONDITIONS” (Rectify Pharmaceuticals, Inc., priority 2024, published 2025).

What was measured:
[1] = biological target: T1, ABCC6 WT (Homo sapiens, UniProt O95255); test: ABCC6 WT assay: HiBit protein expression; assay type: cell-based; conditions: HEK-293 cells transiently expressing HiBit-tagged ABCC6 WT; 24 h treatment; top concentration 20 μM; read-out: ABCC6 WT EC50, Emax
T1 construct: expressed in transfected cells; host or cells: HEK-293 (transient, Lipofectamine 2000)
T1 sequence (O95255 whole entry): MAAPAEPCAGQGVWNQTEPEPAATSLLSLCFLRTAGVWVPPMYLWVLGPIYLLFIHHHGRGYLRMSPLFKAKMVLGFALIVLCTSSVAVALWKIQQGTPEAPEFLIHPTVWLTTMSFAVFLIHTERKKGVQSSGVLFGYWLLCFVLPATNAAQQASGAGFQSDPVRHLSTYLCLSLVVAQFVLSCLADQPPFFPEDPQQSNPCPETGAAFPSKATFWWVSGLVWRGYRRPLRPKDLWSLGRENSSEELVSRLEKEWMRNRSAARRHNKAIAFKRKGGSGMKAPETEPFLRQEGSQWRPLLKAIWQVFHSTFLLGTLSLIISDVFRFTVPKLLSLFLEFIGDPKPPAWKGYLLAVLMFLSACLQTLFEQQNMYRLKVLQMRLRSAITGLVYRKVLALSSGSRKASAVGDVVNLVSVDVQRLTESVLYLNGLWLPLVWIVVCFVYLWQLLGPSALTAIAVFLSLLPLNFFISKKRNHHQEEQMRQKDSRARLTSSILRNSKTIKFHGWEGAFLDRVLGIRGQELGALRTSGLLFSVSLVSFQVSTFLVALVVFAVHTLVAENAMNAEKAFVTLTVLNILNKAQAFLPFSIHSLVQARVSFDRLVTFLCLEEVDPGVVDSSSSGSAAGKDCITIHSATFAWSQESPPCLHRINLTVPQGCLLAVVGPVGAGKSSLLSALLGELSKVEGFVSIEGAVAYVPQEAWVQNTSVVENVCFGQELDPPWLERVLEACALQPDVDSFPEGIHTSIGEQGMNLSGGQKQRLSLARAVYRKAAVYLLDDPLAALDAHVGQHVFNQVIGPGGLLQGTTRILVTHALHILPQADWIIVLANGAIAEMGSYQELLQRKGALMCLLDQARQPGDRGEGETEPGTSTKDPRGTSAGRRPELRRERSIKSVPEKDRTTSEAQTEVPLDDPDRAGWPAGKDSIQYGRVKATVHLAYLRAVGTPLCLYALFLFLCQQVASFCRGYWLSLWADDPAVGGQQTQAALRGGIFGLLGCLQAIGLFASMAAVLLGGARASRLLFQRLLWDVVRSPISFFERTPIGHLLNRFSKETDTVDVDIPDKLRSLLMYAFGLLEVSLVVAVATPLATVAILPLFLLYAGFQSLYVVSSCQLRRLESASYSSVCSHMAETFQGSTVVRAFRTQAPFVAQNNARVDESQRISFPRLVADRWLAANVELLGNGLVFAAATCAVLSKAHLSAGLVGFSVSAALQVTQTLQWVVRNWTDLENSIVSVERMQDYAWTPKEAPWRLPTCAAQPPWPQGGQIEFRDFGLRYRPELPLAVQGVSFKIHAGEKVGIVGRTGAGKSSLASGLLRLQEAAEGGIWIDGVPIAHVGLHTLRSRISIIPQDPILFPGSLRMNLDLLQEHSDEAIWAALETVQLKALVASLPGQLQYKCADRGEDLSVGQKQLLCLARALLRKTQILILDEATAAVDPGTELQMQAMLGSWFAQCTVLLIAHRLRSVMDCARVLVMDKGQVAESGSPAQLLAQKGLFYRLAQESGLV
Text: To assess activity against ABCC6, compounds were screened in an assay measuring protein expression, using cells transfected with cDNA encoding HiBit-tagged ABCC6 wild-type.
Described here is an assay for measuring the expression of the wild type of human ABCC6 (henceforth referred to as ABCC6 WT) and the use of this assay to measure the efficacy of compounds to increase the expression of ABCC6 WT. The assay was designed to characterize the efficacy and potency of compounds to increase the expression of ABCC6 WT by calculating an Emax and EC50 value. HEK-293 cells transiently expressing ABCC6 WT (HEK-293/ACC6 WT) were used for this assay and were cultured at 37° C. (5% CO2, humidified) in Dulbecco's Modified Eagle Medium (DMEM, Gibco product #11965-092) supplemented with 10% fetal bovine serum. For the assay, HEK-293 cells were transfected with […]/10 cm plate of cDNA encoding HiBit-tagged ABCC6 wild-type using Lipofectamine 2000 (Thermo Fisher, product #11668019). Twenty-four hours after transfection, the HEK-293/ACC6 WT cells were seeded in white/opaque 384-well plates (PerkinElmer, cat. No. 6007688) at 10,000 cells/well in 20 μl growth medium and allowed to settle for 4 hours at 37° C. (5% CO2, humidified). Compound serial dilutions are prepared in growth medium as ten times (10×) the final concentration and using a dilution factor of 2. After the four-hour incubation period, 2.2 μL of the 10× dilutions are transferred to the assay plate.
Dose response curves include ten doses with the top final concentration at 20 μM in 0.15% DMSO. Liquid handling is performed with an Integra mini96-tip head (INTEGRA). After addition of compound treatment, cells are incubated for 24 hours at 37° C. (5% CO2, humidified). After the 24-hour treatment, plates are allowed to equilibrate for 15 minutes at room temperature. Using Integra mini-96, 20 μl of HiBit lytic assay reagent (Promega, product #N3040), which is prepared according to manufacturer's instructions, is added to each well. The plates are rotated at room temperature for 10 minutes and luminescent signal is acquired using an EnVision Multimode Plate Reader (PerkinElmer).
Results are presented below in Table 4 for ABCC6 WT.

[2] = biological target: T2, ABCB4 WT (Homo sapiens, UniProt P21439); test: ABCB4 WT assay: HiBit protein expression; assay type: cell-based; conditions: HEK-293 cells stably expressing HiBit-tagged ABCB4 WT; 24 h treatment; top concentration 30 μM; read-out: ABCB4 WT EC50, Emax
T2 construct: expressed in transfected cells
T2 sequence (P21439 whole entry): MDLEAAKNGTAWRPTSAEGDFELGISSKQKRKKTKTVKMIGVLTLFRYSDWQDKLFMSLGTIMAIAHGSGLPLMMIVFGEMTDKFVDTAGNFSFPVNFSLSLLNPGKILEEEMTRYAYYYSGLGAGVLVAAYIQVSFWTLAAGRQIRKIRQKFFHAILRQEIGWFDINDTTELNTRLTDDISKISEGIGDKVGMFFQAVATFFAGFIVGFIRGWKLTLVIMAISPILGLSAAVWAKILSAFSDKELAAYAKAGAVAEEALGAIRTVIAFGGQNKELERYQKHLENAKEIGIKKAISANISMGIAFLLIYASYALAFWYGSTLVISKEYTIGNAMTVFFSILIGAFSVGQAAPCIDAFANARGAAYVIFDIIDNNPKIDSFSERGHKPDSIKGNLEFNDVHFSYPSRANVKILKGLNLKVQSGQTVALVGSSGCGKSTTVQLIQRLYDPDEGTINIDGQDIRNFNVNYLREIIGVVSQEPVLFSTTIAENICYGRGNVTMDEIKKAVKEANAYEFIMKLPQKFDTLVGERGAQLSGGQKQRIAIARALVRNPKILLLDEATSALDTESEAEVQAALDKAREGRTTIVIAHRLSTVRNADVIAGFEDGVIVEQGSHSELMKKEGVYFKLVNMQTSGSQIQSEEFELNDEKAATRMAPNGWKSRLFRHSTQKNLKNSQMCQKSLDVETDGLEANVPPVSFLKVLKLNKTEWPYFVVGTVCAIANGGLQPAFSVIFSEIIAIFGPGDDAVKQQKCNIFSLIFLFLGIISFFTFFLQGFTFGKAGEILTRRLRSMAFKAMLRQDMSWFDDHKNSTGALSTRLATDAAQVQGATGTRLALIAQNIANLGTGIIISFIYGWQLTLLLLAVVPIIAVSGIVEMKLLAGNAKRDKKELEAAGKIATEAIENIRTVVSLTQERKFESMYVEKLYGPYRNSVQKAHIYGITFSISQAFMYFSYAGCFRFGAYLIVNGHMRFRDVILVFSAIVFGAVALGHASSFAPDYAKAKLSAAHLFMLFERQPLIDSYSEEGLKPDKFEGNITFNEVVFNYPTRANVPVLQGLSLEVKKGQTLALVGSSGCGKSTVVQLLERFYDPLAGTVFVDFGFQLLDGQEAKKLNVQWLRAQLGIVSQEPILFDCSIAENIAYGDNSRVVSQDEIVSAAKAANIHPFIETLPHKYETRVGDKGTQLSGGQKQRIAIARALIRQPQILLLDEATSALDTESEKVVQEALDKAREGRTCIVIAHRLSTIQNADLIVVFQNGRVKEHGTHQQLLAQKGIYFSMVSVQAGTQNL
Text: To assess activity against ABCB4, compounds were screened in an assay measuring protein expression, using cells transfected with cDNA encoding HiBit-tagged ABCB4 wild-type.
Described here is an assay for measuring the expression of the wild type of human ABCB4 (henceforth referred to as ABCB4 WT) and the use of this assay to measure the efficacy of compounds to increase the expression of ABCB4 WT. The assay was designed to characterize the efficacy and potency of compounds to increase the expression of ABCB4 WT by calculating an Emax and EC50 value. HEK-293 cells stably expressing ABCB4 WT (HEK-293/ABCB4 WT) were used for this assay and were maintained at 37° C. (5% CO2, humidified) in Dulbecco's Modified Eagle Medium (DMEM, Gibco product #12100) supplemented with 10% fetal bovine serum (Biosera product #FB-1058/500), 1% PenStrep (HDB product #15140-122), and 0.5 mg/mL puromycin (Gibco product #A11138-03). For the assay, the HEK-293/ABCB4 WT cells were seeded in white/opaque 384-well plates (Corning product #3570) at 10,000 cells/well in 20 μl growth medium and allowed to settle for 4 hours at 37° C. (5% CO2, humidified). Compound serial dilutions are prepared in DMSO as three hundred times (333×) the final concentration and using a dilution factor of 3 using Bravo (Agilent). After the four-hour incubation period, 60 nL of DMSO solutions are transferred to the assay plate.
Dose response curves include eleven doses with the top final concentration at 30 μM in 0.3% DMSO. Liquid handling is performed with ECHO 550 Acoustic Liquid Handler (Labcyte). After addition of compound treatment, cells are incubated for 24 hours at 37° C. (5% CO2, humidified). After the 24-hour treatment, plates are allowed to equilibrate to room temperature for 10 minutes. Using Dragonfly Automated Liquid Handler (TTP LabTech), 20 μl of HiBit lytic assay reagent (Promega, product #N3040), which is prepared according to manufacturer's instructions, is added to each well. The plates are rotated at room temperature for 2 minutes and incubated for 1 hour at 25° C. before luminescent signal is acquired using an EnVision Multimode Plate Reader (PerkinElmer).
Results are presented below in Table 5 for ABCB4 WT.

| EC50 [1] [µM] | EC50 [2] [µM] | SMILES |
| --- | --- | --- |
| < 1 | < 1 | Cc1nc(C2CC2)nc(C2CC2)c1Oc1nc(-c2cncc(C#N)c2)ccc1NS(C)(=O)=O [Compound I-150] |
| < 1 | ≥ 25 | Cc1cc(C)c(Oc2nc(-c3cncc(C#N)c3)ncc2NS(C)(=O)=O)c(C)c1 [Compound I-10] |
| < 1 | < 1 | Cc1nc(Oc2nc(-c3cncc(C#N)c3)ccc2NS(C)(=O)=O)c(C2CC2)s1 [Compound I-300] |
| 1 to 10 | 1 to 10 | Cc1cc(C)c(Oc2nc(-c3cncc(Cl)c3)ccc2S(=O)(=O)N2CCCC2)c(C)c1 [Compound I-96] |
| 1 to 10 | < 1 | Cc1cc(C(F)(F)F)nc(C2CC2)c1Oc1nc(-c2cncc(C#N)c2)ccc1S(=O)(=O)N(C)C [Compound I-291] |
| < 1 | < 1 | Cc1cc(C)c(Oc2nc(-c3cnc(C#N)c(Cl)c3)ccc2NS(C)(=O)=O)c(C)n1 [Compound I-8] |
| < 1 | < 1 | Cc1nc(C(F)(F)F)nc(C2CC2)c1Oc1nc(-c2cncc(C#N)c2)ccc1NS(C)(=O)=O [Compound I-145] |
| < 1 | < 1 | Cc1nc(C2COC2)nc(C2CC2)c1Oc1nc(-c2cncc(C#N)c2)ccc1NS(C)(=O)=O [Compound I-143] |
| 1 to 10 | 1 to 10 | Cc1cc(C)c(Oc2nc(-c3cccc(C#N)c3)ccc2S(=N)(=O)C2CC2)c(C)n1 (stereo not drawn) [Compound I-316] |
| < 1 | ≥ 25 | Cc1cc(C)c(Oc2nc(-c3cncc(Cl)c3)ncc2NS(C)(=O)=O)c(C)c1 [Compound I-9] |
| < 1 | < 25 | Cc1cc(C)c(Oc2nc(-c3cncc(C#N)c3)ccc2NS(=O)(=O)c2cccnc2)c(C2CC2)n1 [Compound I-147] |
| 1 to 10 | < 25 | Cc1nc(N2CC3(COC3)C2)nc(C)c1Oc1nc(-c2cncc(C#N)c2)ccc1NS(C)(=O)=O [Compound I-160] |
| < 1 | < 1 | Cc1nc(C(F)(F)F)nc(C2CC2)c1Oc1nc(-c2cncc(Cl)c2)ccc1NS(C)(=O)=O [Compound I-151] |
| < 1 | < 1 | CS(=O)(=O)Nc1ccc(-c2cncc(C#N)c2)nc1Oc1c(C2CC2)nc(C(F)(F)F)nc1C1CC1 [Compound I-138] |
| 1 to 10 | ≥ 25 | Cc1cc(C(F)(F)F)nc(C2CC2)c1Oc1nc(-c2cncc(C#N)c2)ccc1S(=N)(=O)C1CCOCC1 (stereo not drawn) [Compound I-301] |
| < 1 | < 1 | Cc1nc(N2CC(C#N)C2)nc(C)c1Oc1nc(-c2cncc(C#N)c2)ccc1NS(C)(=O)=O [Compound I-159] |
| 1 to 10 | ≥ 25 | Cc1cc(C)c(Oc2nc(-c3cncc(Cl)c3)ccc2S(=O)(=O)NC(C)(C)C)c(C)c1 [Compound I-99] |
| 1 to 10 | ≥ 25 | Cc1cc(C)c(Oc2nc(-c3c[nH]c(=O)c(C#N)c3)ccc2NS(C)(=O)=O)c(C)n1 [Compound I-307] |
| < 1 | < 1 | Cc1cc(C(F)(F)F)nc(C2CC2)c1Oc1nc(-c2cncc(C#N)c2)ccc1NS(=O)(=O)C(C)C [Compound I-141] |
| < 1 | 10 to 25 | Cc1cc(C(F)(F)F)nc(C2CC2)c1Oc1nc(-c2cncc(C#N)c2)ccc1S(=O)(=O)Nc1cccnc1 [Compound I-294] |

| EC50 [1] [µM] | EC50 [2] [µM] | SMILES |
| --- | --- | --- |
| < 1 | < 1 | Cc1cc(C(F)(F)F)nc(C2CC2)c1Oc1nc(-c2cncc(C#N)c2)ccc1NS(C)(=O)=O [Compound I-163] |
| < 1 | < 1 | Cc1cc(C)c(Oc2nc(-c3ccc(C#N)nc3)ccc2NS(C)(=O)=O)c(C)n1 [Compound I-7] |
| 1 to 10 | < 1 | CNS(=O)(=O)c1ccc(-c2cncc(C#N)c2)nc1Oc1c(C)cc(C(F)(F)F)nc1C1CC1 [Compound I-293] |
| 1 to 10 | ≥ 25 | Cc1cc(C)c(Oc2nc(-c3cccc(Cl)c3)ccc2S(N)(=O)=O)c(C)c1 [Compound I-102] |
| 1 to 10 | 1 to 10 | Cc1cc(C)[n+]([O-])c(C)c1Oc1nc(-c2cncc(C#N)c2)ccc1NS(C)(=O)=O [Compound I-311] |
| < 1 | ≥ 25 | Cc1nc(C(F)(F)F)nc(C2CC2)c1Oc1nc(-c2cncc(C#N)c2)ccc1S(=O)(=O)Nc1cccnc1 [Compound I-310] |
| < 1 | < 1 | CCS(=O)(=O)N(C)c1ccc(-c2cncc(C#N)c2)nc1Oc1c(C)cc(C(F)(F)F)nc1C1CC1 [Compound I-148] |
| < 1 | < 1 | Cc1sc(C2CC2)nc1Oc1nc(-c2cncc(C#N)c2)ccc1NS(C)(=O)=O [Compound I-299] |
| ≥ 25 | 1 to 10 | Cc1nc(C(F)F)nc(C2CC2)c1Oc1nc(-c2cncc(C#N)c2)ccc1S(=O)(=O)NC1CC1 [Compound I-314] |
| 1 to 10 | ≥ 25 | Cc1nc(C(F)(F)F)nc(C2CC2)c1Oc1nc(-c2cncc(C#N)c2)ccc1S(=N)(=O)C1CC1 (stereo not drawn) [Compound I-303] |
| < 1 | < 1 | CNS(=O)(=O)c1ccc(-c2cncc(Cl)c2)nc1Oc1c(C)cc(C)cc1C [Compound I-95] |
| 1 to 10 | < 1 | Cc1cc(C(F)(F)F)nc(C2CC2)c1Oc1nc(-c2cncc(C#N)c2)ccc1S(=N)(=O)c1cccnn1 (stereo not drawn) [Compound I-296] |
| < 1 | < 1 | Cc1nc(C(F)(F)F)cc(C2CC2)c1Oc1nc(-c2cncc(C#N)c2)ccc1NS(C)(=O)=O [Compound I-155] |
| < 1 | < 1 | Cc1cc(C(F)F)nc(C2CC2)c1Oc1nc(-c2cncc(C#N)c2)ccc1NS(C)(=O)=O [Compound I-137] |
| < 1 | ≥ 25 | Cc1cc(C(F)(F)F)nc(C2CC2)c1Oc1nc(-c2cncc(C#N)c2)ccc1S(=O)(=O)NC1CCOCC1 [Compound I-306] |
| < 1 | 1 to 10 | Cc1cc(C(F)(F)F)nc(C2CC2)c1Oc1nc(-c2cncc(C#N)c2)ccc1S(=O)(=O)NC1CC1 [Compound I-133] |
| < 1 | < 1 | Cc1cc(C2CC2)nc(C)c1Oc1nc(-c2cncc(C#N)c2)ccc1NS(C)(=O)=O [Compound I-4] |
| 1 to 10 | ≥ 25 | Cc1cc(C(F)(F)F)nc(C2CC2)c1Oc1nc(-c2cncc(Cl)c2)ccc1N(C)S(C)(=O)=O [Compound I-153] |
| < 1 | < 1 | Cc1cc(C)c(Oc2nc(-c3cncc(Cl)c3)ccc2S(C)(=N)=O)c(C)c1 (stereo not drawn) [Compound I-103] |
